The values that follow come from paper PMC6982167, “Development of an Improved Peroxidase-Based High-Throughput Screening for the Optimization of D-Glycerate Dehydratase Activity” (International Journal of Molecular Sciences, 2020).

Test [1] addresses T1, SsDHAD (dihydroxyacid dehydratase from Sulfolobus solfataricus) (Saccharolobus solfataricus, UniProt Q97UB2).
T1 construct: gene ilvD; full-length synthetic gene in pET24a(+) via NdeI/XhoI, reverse primer carries stop codon (no tag); E. coli BL21(DE3); heat step 70 °C with 2-mercaptoethanol, desalted; iron-sulfur cluster
The test is described as follows: discontinuous dehydration assay, pyruvate by HPLC. The format is biochemical. As to conditions: supplied as D/L-glycerate 40 mM, pH 7.0, 50 °C, 60 min.

For test [2], the target named is T1, SsDHAD (dihydroxyacid dehydratase from Sulfolobus solfataricus). The test is described as follows: discontinuous dehydration assay, HPLC (2-keto-3-deoxygluconate). Format: biochemical. As to conditions: 20 mM D-gluconate, 50 °C, 60 min.

The structures appear in SMILES notation.

T1 sequence (Q97UB2 whole entry): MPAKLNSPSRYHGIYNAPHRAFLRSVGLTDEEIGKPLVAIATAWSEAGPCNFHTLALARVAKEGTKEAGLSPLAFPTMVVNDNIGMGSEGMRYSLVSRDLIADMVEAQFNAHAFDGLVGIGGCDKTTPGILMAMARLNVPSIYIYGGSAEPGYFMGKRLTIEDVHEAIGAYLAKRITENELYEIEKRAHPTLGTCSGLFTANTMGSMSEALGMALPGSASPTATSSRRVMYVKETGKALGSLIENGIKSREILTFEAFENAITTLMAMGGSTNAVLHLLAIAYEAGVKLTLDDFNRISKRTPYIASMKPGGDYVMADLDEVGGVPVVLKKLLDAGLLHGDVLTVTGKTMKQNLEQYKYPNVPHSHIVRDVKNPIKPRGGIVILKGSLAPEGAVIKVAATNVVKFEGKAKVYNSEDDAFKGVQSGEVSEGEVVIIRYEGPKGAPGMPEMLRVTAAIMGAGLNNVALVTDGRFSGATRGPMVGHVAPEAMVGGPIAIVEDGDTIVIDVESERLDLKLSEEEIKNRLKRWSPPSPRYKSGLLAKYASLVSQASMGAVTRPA

In the case of `O=C(O)[C@H](O)CO` [D-glycerate], the specific activity result in test [1] was “wildtype showed an activity for the dehydration of D-glycerate”.
Consider `O=C(O)[C@H](O)[C@@H](O)[C@H](O)[C@H](O)CO` [D-gluconate], for which the specific activity entry in test [2] is listed as “we also tested the conversion of D-gluconate to 2-keto-deoxy gluconate”.
